In patent publication US20260248783A1 (ASCLETIS BIOSCIENCE CO., LTD., priority 2021, published 2026):

Target: T1, PD-1/PD-L1 (Homo sapiens, UniProt Q9NZQ7)
T1 construct: Recombinant human PD-L1 protein (19-238) with a Histag at the C-terminus; purchased AcroBiosystems PD1-H5229 (PD-L1); PD1-H5257 (PD-1)
Assay: PD-1/PD-L1 Homogeneous Time-Resolved Fluorescence (HTRF) Binding Assay
Settings: PD-1/PD-L1 HTRF activity; 3 nM PD1, 10 nM PD-L1, 25° C.
Experimental: Example 107. PD-1/PD-L1 Homogeneous Time-Resolved Fluorescence (HTRF) Binding Assay
The assays were conducted in a standard black 384-well polystyrene plate with a final volume of 20 μL. Inhibitors were first serially diluted in DMSO and then added to the plate wells before the addition of other reaction components. The final concentration of DMSO in the assay was 1%. The assays were carried out at 25° C. in the PBS buffer (pH 7.4) with 0.05% Tween-20 and 0.1% BSA. Recombinant human PD-L1 protein (19-238) with a Histag at the C-terminus was purchased from AcroBiosystems (PD1-H5229). Recombinant human PD-1 protein (25-167) with Fe tag at the C-terminus was also purchased from AcroBiosystems (PD1-H5257). PD-L1 and PD-1 proteins were diluted in the assay buffer and 10 μL was added to the plate well. Plates were centrifuged and proteins were preincubated with inhibitors for 40 minutes. The incubation was followed by the addition of 10 μL of HTRF detection buffer supplemented with Europium cryptate-labeled anti-human IgG (PerkinElmer-AD0212) specific for Fe and anti-His antibody conjugated to SureLight®—Allophycocyanin (APC, PerkinElmer-AD0059H). After centrifugation, the plate was incubated at 25° C. for 60 min. before reading on a PHERAstar FS plate reader (665 nm/620 nm ratio). Final concentrations in the assay were […], 10 nM PD-L1, 1 nM europium anti-human IgG and 20 nM anti-His-Allophycocyanin. IC50 determination was performed by fitting the curve of percent control activity versus the log of the inhibitor concentration.

T1 sequence (Q9NZQ7 19-238): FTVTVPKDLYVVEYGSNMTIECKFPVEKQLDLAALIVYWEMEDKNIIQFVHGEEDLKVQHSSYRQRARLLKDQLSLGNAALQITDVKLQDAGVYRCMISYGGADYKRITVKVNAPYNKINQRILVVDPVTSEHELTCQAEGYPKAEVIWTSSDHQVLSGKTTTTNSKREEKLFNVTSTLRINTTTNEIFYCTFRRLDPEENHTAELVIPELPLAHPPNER

Row | SMILES | IC50 [nM]
1 | Cc1cn2nc(-c3cccc(-c4cccc(-c5cc6c(=O)n(CCN[C@@H](CN)C(=O)O)c(C)cn6n5)c4Cl)c3Cl)cc2c(=O)n1CCNC(CN)C(=O)O (stereo in doubt) [Compound 67, (2S,2'S)-2,2′-((((2,2′-dichloro-[1,1′-biphenyl]-3,3′-diyl)bis(6-methyl-4-oxopyrazolo[1,5-a]pyrazine-2,5(4H)-diyl))bis(ethane-2,1-diyl))bis(azanediyl))bis(3-aminopropanoic acid)] | ≥ 100
2 | O=C1CC[C@@H](Cn2cnc3sc(-c4cccc(-c5cccc(-c6cc7c(=O)n(C[C@@H]8CCC(=O)N8)cnc7s6)c5Cl)c4Cl)cc3c2=O)N1 [Compound 2, 6,6′-(2,2′-dichloro-[1,1′-biphenyl]-3,3′-diyl)bis(3-(((S)-5-oxopyrrolidin-2-yl)methyl)thieno[2,3-d]pyrimidin-4(3H)-one)] | 10 to 100
3 | O=C1CCC(Cn2cnn3c(F)c(-c4cccc(-c5cccc(-c6cc7c(=O)n(CC8CCC(=O)N8)cnn7c6F)c5Cl)c4Cl)cc3c2=O)N1 (centres unmarked) [Compound 3, 6,6′-(2,2′-dichloro-[1,1′-biphenyl]-3,3′-diyl)bis(7-fluoro-3-((5-oxopyrrolidin-2-yl)methyl)pyrrolo[2,1-f][1,2,4]triazin-4(3H)-one)] | < 10
4 | Cn1c(-c2cccc(-c3cccc(-c4cc5ncn(C[C@@H]6CCC(=O)N6)c(=O)c5n4C)c3Cl)c2Cl)cc2ncn(C[C@@H]3CCC(=O)N3)c(=O)c21 [Compound 4, 6,6′-(2,2′-dichloro-[1,1′-biphenyl]-3,3′-diyl)bis(5-methyl-3-(((S)-5-oxopyrrolidin-2-yl)methyl)-3,5-dihydro-4H-pyrrolo[3,2-d]pyrimidin-4-one)] | ≥ 100
5 | O=C1CC[C@@H](Cn2ccn3cc(-c4cccc(-c5cccc(-c6cc7c(=O)n(C[C@@H]8CCC(=O)N8)ccn7c6)c5Cl)c4Cl)cc3c2=O)N1 [Compound 5, 7,7′-(2,2′-dichloro-[1,1′-biphenyl]-3,3′-diyl)bis(2-(((S)-5-oxopyrrolidin-2-yl)methyl)pyrrolo[1,2-a]pyrazin-1(2H)-one)] | 10 to 100
6 | Cn1c(-c2cccc(-c3cccc(-c4nc5c(=O)n(C[C@@H]6CCC(=O)N6)ccc5n4C)c3Cl)c2Cl)nc2c(=O)n(C[C@@H]3CCC(=O)N3)ccc21 [Compound 6, 2,2′-(2,2′-dichloro-[1,1′-biphenyl]-3,3′-diyl)bis(1-methyl-5-(((S)-5-oxopyrrolidin-2-yl)methyl)-1,5-dihydro-4H-imidazo[4,5-c]pyridin-4-one)] | ≥ 100
7 | O=C1CC[C@@H](Cn2ccn3nc(-c4cccc(-c5cccc(-c6cc7c(=O)n(C[C@@H]8CCC(=O)N8)ccn7n6)c5Cl)c4Cl)cc3c2=O)N1 [Compound 7, 2,2′-(2,2′-dichloro-[1,1′-biphenyl]-3,3′-diyl)bis(5-(((S)-5-oxopyrrolidin-2-yl)methyl)pyrazolo[1,5-a]pyrazin-4(5H)-one)] | < 10
8 | O=C1CC[C@@H](Cn2ccc3sc(-c4cccc(-c5cccc(-c6cc7c(=O)n(C[C@@H]8CCC(=O)N8)ccc7s6)c5Cl)c4Cl)cc3c2=O)N1 [Compound 8, 2,2′-(2,2′-dichloro-[1,1′-biphenyl]-3,3′-diyl)bis(5-(((S)-5-oxopyrrolidin-2-yl)methyl)thieno[3,2-c]pyridin-4(5H)-one)] | 10 to 100
9 | O=C1CC[C@@H](CN2CCn3cc(-c4cccc(-c5cccc(-c6cc7n(c6)CCN(C[C@@H]6CCC(=O)N6)C7=O)c5Cl)c4Cl)cc3C2=O)N1 [Compound 9, 7,7′-(2,2′-dichloro-[1,1′-biphenyl]-3,3′-diyl)bis(2-(((S)-5-oxopyrrolidin-2-yl)methyl)-3,4-dihydropyrrolo[1,2-a]pyrazin-1(2H)-one)] | ≥ 100
10 | Cn1c(-c2cccc(-c3cccc(-c4nc5c(c(=O)n(C[C@@H]6CCC(=O)N6)c(=O)n5C)n4C)c3Cl)c2Cl)nc2c1c(=O)n(C[C@@H]1CCC(=O)N1)c(=O)n2C [Compound 10, 8,8′-(2,2′-dichloro-[1,1′-biphenyl]-3,3′-diyl)bis(3,7-dimethyl-1-(((S)-5-oxopyrrolidin-2-yl)methyl)-3,7-dihydro-1H-purine-2,6-dione)] | ≥ 100
11 | O=C1CC[C@@H](Cn2ncn3cc(-c4cccc(-c5cccc(-c6cc7c(=O)n(C[C@@H]8CCC(=O)N8)ncn7c6)c5Cl)c4Cl)cc3c2=O)N1 [Compound 11, 7,7′-(2,2′-dichloro-[1,1′-biphenyl]-3,3′-diyl)bis(2-(((S)-5-oxopyrrolidin-2-yl)methyl)pyrrolo[1,2-d][1,2,4]triazin-1(2H)-one)] | ≥ 100
12 | O=C1CC[C@@H](Cn2ccn3cc(-c4cccc(-c5cccc(-c6cn7ccn(C[C@@H]8CCC(=O)N8)c(=O)c7n6)c5Cl)c4Cl)nc3c2=O)N1 [Compound 12, 2,2′-(2,2′-dichloro-[1,1′-biphenyl]-3,3′-diyl)bis(7-(((S)-5-oxopyrrolidin-2-yl)methyl)imidazo[1,2-a]pyrazin-8(7H)-one)] | 10 to 100
13 | O=C1CC[C@@H](Cn2ccn3c(F)c(-c4cccc(-c5cccc(-c6nc7c(=O)n(C[C@@H]8CCC(=O)N8)ccn7c6F)c5Cl)c4Cl)nc3c2=O)N1 [Compound 13, 2,2′-(2,2′-dichloro-[1,1′-biphenyl]-3,3′-diyl)bis(3-fluoro-7-(((S)-5-oxopyrrolidin-2-yl)methyl)imidazo[1,2-a]pyrazin-8(7H)-one)] | ≥ 100
14 | O=C1CC[C@@H](Cn2cnc3[nH]c(-c4cccc(-c5cccc(-c6cc7c(=O)n(C[C@@H]8CCC(=O)N8)cnc7[nH]6)c5Cl)c4Cl)cc3c2=O)N1 [Compound 14, 6,6′-(2,2′-dichloro-[1,1′-biphenyl]-3,3′-diyl)bis(3-(((S)-5-oxopyrrolidin-2-yl)methyl)-3,7-dihydro-4H-pyrrolo[2,3-d]pyrimidin-4-one)] | 10 to 100
15 | O=C1CC[C@@H](Cn2ccn3nc(-c4cccc(-c5cccc(-c6nc7c(=O)n(C[C@@H]8CCC(=O)N8)ccn7n6)c5Cl)c4Cl)nc3c2=O)N1 [Compound 15, 2,2′-(2,2′-dichloro-[1,1′-biphenyl]-3,3′-diyl)bis(7-(((S)-5-oxopyrrolidin-2-yl)methyl)-[1,24]triazolo[1,5-a]pyrazin-8(7H)-one)] | < 10
16 | O=C1CCC(Cn2cc(F)n3cc(-c4cccc(-c5cccc(-c6cc7c(=O)n(CC8CCC(=O)N8)cc(F)n7c6)c5Cl)c4Cl)cc3c2=O)N1 (centres unmarked) [Compound 16, 7,7′-(2,2′-dichloro-[1,1′-biphenyl]-3,3′-diyl)bis(4-fluoro-2-((5-oxopyrrolidin-2-yl)methyl)pyrrolo[1,2-a]pyrazin-1(2H)-one)] | 10 to 100
17 | Cc1c(-c2cc3c(=O)n(C[C@@H]4CCC(=O)N4)cnn3c2)cccc1-c1cccc(-c2cc3c(=O)n(C[C@@H]4CCC(=O)N4)cnn3c2)c1C [Compound 17, 6,6′-(2,2′-dimethyl-[1,1′-biphenyl]-3,3′-diyl)bis(3-(((S)-5-oxopyrrolidin-2-yl)methyl)pyrrolo[2,1-f][1,2,4]triazin-4(3H)-one)] | < 10
18 | O=C1CC(Cn2cnn3cc(-c4cccc(-c5cccc(-c6cc7c(=O)n(CC8CNC(=O)C8)cnn7c6)c5Cl)c4Cl)cc3c2=O)CN1 (centres unmarked) [Compound 18, 6,6′-(2,2′-dichloro-[1,1′-biphenyl]-3,3′-diyl)bis(3-((5-oxopyrrolidin-3-yl)methyl)pyrrolo[2,1-f][1,2,4]triazin-4(3H)-one)] | 10 to 100
19 | O=C1NCCN1CCn1cnn2cc(-c3cccc(-c4cccc(-c5cc6c(=O)n(CCN7CCNC7=O)cnn6c5)c4Cl)c3Cl)cc2c1=O [Compound 19, 6,6′-(2,2′-dichloro-[1,1′-biphenyl]-3,3′-diyl)bis(3-(2-(2-oxoimidazolidin-1-yl)ethyl)pyrrolo[2,1-f][1,2,4]triazin-4(3H)-one)] | ≥ 100
20 | O=c1c2cc(-c3cccc(-c4cccc(-c5cc6c(=O)n(CCO)cnn6c5)c4Cl)c3Cl)cn2ncn1CCO [Compound 20, 6,6′-(2,2′-dichloro-[1,1′-biphenyl]-3,3′-diyl)bis(3-(2-hydroxyethyl)pyrrolo[2,1-f][1,2,4]triazin-4(3H)-one)] | ≥ 100
21 | O=c1c2cc(-c3cccc(-c4cccc(-c5cc6c(=O)n(CCn7cccn7)cnn6c5)c4Cl)c3Cl)cn2ncn1CCn1cccn1 [Compound 21, 6,6′-(2,2′-dichloro-[1,1′-biphenyl]-3,3′-diyl)bis(3-(2-(1H-pyrazol-1-yl)ethyl)pyrrolo[2,1-f][1,2,4]triazin-4(3H)-one)] | ≥ 100
22 | O=c1c2cc(-c3cccc(-c4cccc(-c5cc6c(=O)n(CCn7cncn7)cnn6c5)c4Cl)c3Cl)cn2ncn1CCn1cncn1 [Compound 22, 6,6′-(2,2′-dichloro-[1,1′-biphenyl]-3,3′-diyl)bis(3-(2-(1H-1,2,4-triazol-1-yl)ethyl)pyrrolo[2,1-f][1,2,4]triazin-4(3H)-one)] | 10 to 100
23 | O=C(O)Cn1cnn2cc(-c3cccc(-c4cccc(-c5cc6c(=O)n(CC(=O)O)cnn6c5)c4Cl)c3Cl)cc2c1=O [Compound 23, 2,2′-((2,2′-dichloro-[1,1′-biphenyl]-3,3′-diyl)bis(4-oxopyrrolo[2,1-f][1,2,4]triazine-6,3(4H)-diyl))diacetic acid] | ≥ 100
